Measured values published in patent US11691989B2, “Macrocyclic indoles as Mcl-1 inhibitors” (ASCENTAGE PHARMA (SUZHOU) CO., LTD., priority 2018, dated 2023).
pIC50: −log10 of the molar value.

Tests used:
OPM-2 cells = test: Cell viability assay (OPM-2 cells), CCK-8; type: cell-based; conditions: Homo sapiens, OPM-2, 24 h, 5% FBS
Protocol: Cell Viability Assay (OPM-2 cells)
OPM-2 cells were obtained from Deutsche Sammlung von Mikroorganismen and Zellkulturen GmbH (DSMZ). Cells were maintained in the recommended culture medium with 10% FBS at 37° C. and an atmosphere of 5% CO2.
The effect of representative Compounds of the Disclosure on cell viability was determined using Cell Counting Kit-8 (CCK-8) assay (Shanghai Life iLab Bio Technology) according to the manufacturer's instructions. Each tested compound was serially diluted in culture medium, 100 μL of the compound dilution was added into 96-well plates. 100 μL of an OPM-2 cell suspension (20000 cells/well) in culture medium were seeded into the corresponding well of the plate and the cells were incubated at 37° C. in an atmosphere of 5% CO2 for 24 hours. In the next day, 20 μL of CCK-8 solution was added to each well of the plate and incubated for 4 hours.
The plates were read at 450 nm on the microplate spectrophotometer (SpectraMax plus 384, Molecular devices). The readings were normalized to the vehicle cells, and the IC50 was calculated by nonlinear regression analysis using GraphPad Prism 6 software.

[1] = biological target: Mcl-1 protein (residues 171-323) (Homo sapiens (Human), UniProt Q07820); test: Inhibition of Mcl-1 by fluorescence polarization (FP) competitive binding assay with FAM-Bid tracer; conditions: 2 nM FAM-Bid, 20 nM Mcl-1, 30 min, read-out: Mc1-1 (FP)
Sequence of Mcl-1 protein (residues 171-323) (Q07820 171-323): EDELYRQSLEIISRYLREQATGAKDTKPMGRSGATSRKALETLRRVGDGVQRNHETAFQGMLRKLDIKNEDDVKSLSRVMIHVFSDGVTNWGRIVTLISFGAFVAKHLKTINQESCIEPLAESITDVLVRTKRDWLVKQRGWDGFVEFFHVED
Protocol: Inhibition of Mcl-1 by fluorescence polarization (FP) assay.
The method used a fluorescein labelled peptide (FAM-Bid) which binds to the Mcl-1 protein leading to an increased anisotropy measured in milli-polarization (mP) values using a plate reader.
A 10-points serial dilution of each compound was prepared in DMSO and 5 μL solution was transferred into flat bottomed, 96-well back plate (final DMSO concentration 5%). 120 μL of Buffer (PBS, 0.01% BGG (Sigma Cat. #SRE0011), 0.01% Triton X-100), containing the Fluorescein labelled peptide (Final concentration 2 nM) and Mcl-1 protein (final concentration 20 nM) was then added. […] 10-points dose response curves were plotted with GraphPad software using Sigmoidal Dose-Response Model and the IC50 values were determined by nonlinear regression fitting of the competition curves.

NCI-H929 cells = test: Cell viability assay (NCI-H929 cells), CCK-8; type: cell-based; conditions: Homo sapiens, NCI-H929, 24 h, 5% FBS
Protocol: Cell Viability Assay (NCI-H929 cells)
NCI-H929 cells were obtained from American Type Culture Collection (ATCC). Cells were maintained in the recommended culture medium (RPMI 1640) with 10% FBS and 0.05 mM BME at 37° C. and an atmosphere of 5% CO2.
The effect of Compounds on cell viability was determined using Cell Counting Kit-8 (CCK-8) assay according to the manufacturer's instructions. 95 μL of NCI-H929 cell suspension (20000 cells/well) in culture medium were seeded into 96-well plates and cultured 4 hrs. Each tested compound was serially diluted in DMSO, then 5 μL of the compound or DMSO was diluted in 95 μL medium once more. At last, 5 μL of the compound dilution was added to the corresponding well of the cell plate. After the addition of the tested compound, the cells were incubated at 37° C. in an atmosphere of 5% CO2 for 24 hrs. At the end, 10 μL of CCK-8 solution was added to each well of the plate and incubated for 1-4 hours. The plates were read at 450 nm on the microplate reader (BioTek Synergy 1MF). The readings were normalized to the vehicle cells, and the IC50 was calculated by nonlinear regression analysis using GraphPad Prism 6 software.

CNC(=O)Cn1nc2c(c1C)-c1c(Cl)ccc3c1c(C)c(C(=O)O)n3CCCOc1cc(cc3ccccc13)SCc1cc(nn1C)CSC2 [Cpd. No. 10, (Z)-1^5-chloro-1^3,2^5,6^1-trimethyl-2^1-(2-(methylamino)-2-oxoethyl)-1^1H,2^1H,6^1H-10-oxa-4,8-dithia-1(4,1)-indola-2(4,3),6(3,5)-dipyrazola-9(3,1)-naphthalenacyclotridecaphane-1^2-carboxylic acid]
pIC50 (OPM-2 cells): 5.39 | pIC50 [1]: 8.40 | pIC50 (NCI-H929 cells): 5.73

Cc1c2c(nn1C)CSCc1cc(n(C)n1)CSc1cc(c3ccc(F)cc3c1)OCCCn1c(C(=O)O)cc3c-2c(Cl)ccc31 [Cpd. No. 13, (Z)-1^5-chloro-9^6-fluoro-2^1,2^5,6^1-trimethyl-1^1H,2^1H,6^1E-10-oxa-4,8-dithia-1(4,1)-indola-2(4,3),6(3,5)-dipyrazola-9(3,1)-naphthalenacyclotridecaphane-1^2-carboxylic acid]
pIC50 (OPM-2 cells): 6.19 | pIC50 (NCI-H929 cells): 6.74

Cc1c2c(nn1C)CSCc1cc(n(C)n1)CSc1cc(c3ccc(F)cc3c1)OCCCn1c(C(=O)O)c(F)c3c-2c(Cl)ccc31 [Cpd. No. 19, (Z)-1^5-chloro-1^3,9^6-difluoro-2^1,2^5,6^1-trimethyl-1^1H,2^1H,6^1H-10-oxa-4,8-dithia-1(4,1)-indola-2(4,3),6(3,5)-dipyrazola-9(3,1)-naphthalenacyclotridecaphane-1^2-carboxylic acid]
pIC50 (OPM-2 cells): 6.35 | pIC50 [1]: 8.00 | pIC50 (NCI-H929 cells): 6.35

Cc1c(C(=O)O)n2c3ccc(F)c(c13)-c1c(nn(C)c1C)CSCc1cc(n(C)n1)CSc1cc(c3ccc(F)cc3c1)OCCC2 [Cpd. No. 21, (Z)-1^5,9^6-difluoro-1^3,2^1,2^5,6^1-tetramethyl-1^1H,2^1H,6^1H-10-oxa-4,8-dithia-1(4,1)-indola-2(4,3), 6(3,5)-dipyrazola-9(3,1)-naphthalenacyclotridecaphane-1^2-carboxylic acid]
pIC50 (OPM-2 cells): 6.65 | pIC50 [1]: 8.00 | pIC50 (NCI-H929 cells): 6.77

Cc1c2c(nn1C)CSCc1cc(n(C)n1)CSc1cc(c3ccc(F)cc3c1)OCCCn1c(C(=O)O)c(C#N)c3c-2c(Cl)ccc31 [Cpd. No. 25, (Z)-1^5-chloro-1^3-cyano-9^6-fluoro-2^1,2^5,6^1-trimethyl-1^1H,2^1H,6^1H-10-oxa-4,8-dithia-1(4,1)-indola-2(4,3),6(3,5)-dipyrazola-9(3,1)-naphthalenacyclotridecaphane-1^2-carboxylic acid]
pIC50 (OPM-2 cells): 5.22 | pIC50 [1]: 7.68 | pIC50 (NCI-H929 cells): 5.37

COCCn1nc(C)c2c1CSCc1cc(n(C)n1)CSc1cc(c3ccccc3c1)OCCCn1c(C(=O)O)c(C)c3c-2c(Cl)ccc31 [Cpd. No. 27, (Z)-1^5-chloro-2^1-(2-methoxyethyl)-1^3,2^3,6^1-trimethyl-1^1H,2^1H,6^1H-10-oxa-4,8-dithia-1(4,1)-indola-2(4,5),6(3,5)-dipyrazola-9(3,1)-naphthalenacyclotridecaphane-1^2-carboxylic acid]
pIC50 (OPM-2 cells): 6.59 | pIC50 [1]: 7.82 | pIC50 (NCI-H929 cells): 6.55

Cc1c(C(=O)O)n2c3ccc(Cl)c(c13)-c1c(nn3c1COCC3)CN(S(C)(=O)=O)Cc1cc(n(C)n1)CSc1cc(c3ccc(F)cc3c1)OCCC2 [Cpd. No. 30, (Z)-1^5-chloro-9^6-fluoro-4-(isopropylsulfonyl)-1^3, 6^1-di methyl-2^6,2^7-dihydro-1^1H,2^4H,6^1H-10-oxa-8-thia-4-aza-2(3,2)-pyrazolo[5,1-c][1,4]oxazina-1(4,1)-indola-6(3,5)-pyrazola-9(3,1)-naphthalenacyclotridecaphane-1^2-carboxylic acid]
pIC50 (OPM-2 cells): 5.28 | pIC50 [1]: 7.77 | pIC50 (NCI-H929 cells): 5.73
